The values below come from patent US20140309229A1, “METHODS FOR SELECTING AND TREATING CANCER IN PATIENTS WITH IGF-1R/IR INHIBITORS” (priority 2011, published 2014).

One data set concerns CX-1. In words: MTS proliferation assay. Type of data set: cell-based, human. How it is done:
(§1) Cell lines and in vitro cytotoxicity assay. Cells were maintained at 37° C. under standard cell culture conditions. Cells were plated at an optimized density for each cell line per well in 96-well microtiter FALCON® plates, incubated overnight, and then exposed to a serial dilution of drug. […] The results were expressed as an IC50, which is the drug concentration required to inhibit cell proliferation to 50% of that of untreated control cells. The mean IC50 and standard deviation (SD) from multiple tests for each cell line were calculated.
(§2) In vitro Cellular Proliferation Assays.
(In general: Formazan colour is commonly taken as a measure of viable cells.)

The subject of another data set is SW1417. In words: MTS proliferation assay. The format is cell-based, human. As to the method:
as §1, §2

Data set [1] deals with panel of 60 CRC cell lines. Nature of the data set: MTS proliferation assay, whole panel. The following applies: read-out: IC50, range of sensitivity across the panel. The format is cell-based, human. As to the method:
as §1, §2

For data set [2] the following is noted: patients at minimum efficacious dose, phase I solid tumor trials; cited from earlier work.

Protocol for pIGF-1R/pIR and pAKT: Cells were serum-starved overnight, then either stimulated with 50 ng/ml IGF-1, IGF-2 or insulin for 10 minutes, or unstimulated. Cell lysates were subjected to MSD for measuring both total and phosphorylated IGF-1R and AKT. The phospho-protein values were normalized to the corresponding total protein levels (e.g., pIGF-1R/IGF-1R). The ligand-stimulated activation of IGF-1R or AKT is presented as the ratio of the pIGF-1R/IGF-1R or pAKT/AKT value in IGF-1, IGF-2 or insulin-stimulated cells vs. the value in the non-stimulated cells. […] 20 ug of total protein from cell lysates were subjected to Western blot analysis.
Western Blots and MesoScale Discovery (MSD) Multiplex Plate Based Assays. […] Antibodies for pIGF-IR/pIR, pAkt, p-p44/42 MAPK and IRS2 for Western blot and MSD were purchased from Cell Signaling Technology and Santa Cruz Biotechnology (see figure legends) except for β-ACTIN® sourced from Millipore. Protein signals from Western blots were visualized using ODYSSEY® Imaging (Li-Cor Biosciences). Measurement of phospho- and total IGF-1R, IR, IRS-1, Akt and MAPK was also determined by commercially available multiplex plate based assays (MSD, Gaithersburg Md.). […] Measurement of IRS2 was determined using customized assays utilizing MSD technology.
Cell lysates were subsequently subjected to Western blot analysis and evaluated for pIGF-1R/pIR and pAKT.

For the molecule `C[C@@]1(C(=O)Nc2ccc(F)nc2)CCCN1c1nc(Nc2cc(C3CC3)n[nH]2)c2cccn2n1` [BMS-754807, (2S)-1-(4-((5-cyclopropyl-1H-pyrazol-3-yl)amino)pyrrolo[2,1-f][1,2,4]triazin-2-yl)-N-(6-fluoro-3-pyridinyl)-2-methyl-2-pyrrolidinecarboxamide], the “Sensitivity Classes” value with CX-1 (CX-1) and in the data set on SW1417 (SW1417) was “R (“R” refers Resistant)” throughout. Further, the “Sensitivity to BMS-754807” value with CX-1 (CX-1, preliminary panel of 45 CRC cell lines) is “Intermediate (remaining 30 cell lines classified as Intermediate or resistant)”; in the data set with SW1417 (SW1417, preliminary panel of 45 CRC cell lines) it was “Intermediate (remaining 30 cell lines classified as Intermediate or resistant)”. In addition, the IC50 is 194 nM in the data set with CX-1 (Homo sapiens, CX-1, 72 h); 106 nM with SW1417 (Homo sapiens, SW1417, 72 h); 3 to 5500 nM in data set [1]. Further, in the data set on pIGF-1R/pIR and pAKT, the “pIGF-1R/pIR and pAKT levels” value is reported as “inhibited by BMS-754807 treatment in a dose-dependent manner”. Also, the “average plasma concentration at steady state” value in data set [2] is listed as greater than 50 nmol/L.

Usually IC50 stands for the concentration that gives 50% inhibition.
